# Laboratory results reported in patent publication US20180369264A1, “COMBINATION OF A CARDIAC STEROID AND AN AKT INHIBITOR FOR THE TREATMENT OF CARDIOVASCULAR DISEASES AND DISORDERS” (YISSUM RESEARCH DEVELOPMENT COMPANY OF THE HEBREW …, priority 2015, published 2018).
# Assays:
# [1] = tested on: Akt; experiment: Akt phosphorylation in adult zebrafish heart (Western blot); format: in vivo; settings: wt adult zebrafish, 1 μM in swimming media, 5 minutes
# Method: (§1) Adult zebrafish (˜12-months-old) were transferred to swimming medium containing 1 μM of CS drugs, as specified in the following examples. At various time points (5-30 min), as indicated in the following examples, the zebrafish were transferred to perfusion buffer and the hearts were immediately removed and transferred to RIPA lysis buffer (Sigma-Aldrich), and protease inhibitor cocktail (P8340, Sigma-Aldrich), at a 1:100 dilution). The tissue was homogenized in an ultrasonic homogenizer (Microson, NY, USA) and aliquots of the homogenate were stored at −70° C. until used.
# Protein dilution and separation on SDS-PAGE electrophoresis, their transfer to a polyvinylidene fluoride membrane were carried out. The membranes were incubated for 1 hour at room temperature with one of the specific antibodies against Phospho-p44/42 MAPK (Erk1/2) (Thr202/Tyr204), Rabbit mAb #4370 (Cell signaling) or Phospho-Akt (Ser473) (193H12), Rabbit mAb #4058 (Cell signaling), at a 1:1000 dilution in TBS containing 0.1% Tween. The membranes were washed with TBS containing 0.1% Tween and exposed to horseradish peroxidase-conjugated secondary goat anti-rabbit IgG antibody (1:50,000). The membranes were stripped prior to their exposure to a different antibody. Detection was carried out with the aid of a Luminata™ Crescendo Western HRP Substrates, according to the manufacturer's instructions.
# [2] = tested on: ERK; experiment: ERK phosphorylation in adult zebrafish heart (Western blot); format: in vivo; settings: wt adult zebrafish, 1 μM in swimming media, 5 minutes
# Method: as §1
# Protein dilution and separation on SDS-PAGE electrophoresis, their transfer to a polyvinylidene fluoride membrane were carried out. […] The membranes were washed with TBS containing 0.1% Tween and exposed to horseradish peroxidase-conjugated secondary goat anti-rabbit IgG antibody (1:50,000). The membranes were stripped prior to their exposure to a different antibody. Detection was carried out with the aid of a Luminata™ Crescendo Western HRP Substrates, according to the manufacturer's instructions.
# [3] = tested on: zebrafish accordion mutant (acc) larvae heart; experiment: In-vivo heart contractility measurements in zebrafish acc mutant larvae; parameters: species or system zebrafish (Danio rerio); settings: 1 nM, 90 minutes
# Method: Ouabain, bufalin, digoxin, acetylcholine, carbachol, […] (pp2) and U0126 (1,4-diamino-2,3-dicyano-1,4-bis(2-aminophenylthio)butadiene) were purchased from Sigma-Aldrich Inc., Israel. The compounds were dissolved in egg water (0.3 g Instant Ocean Salt in distilled water) to a final selected concentration, as specified in the following examples. The larvae in 20 μL of E3 medium were transferred to the egg water solution containing one or two of the above specified drugs of choice, and incubated for 60-90 minutes at 28° C.
# Filming process Zebrafish larvae heart imaging was performed using an Olympus CKX41 (Japan) […] microscope with ×10 or ×20 magnification, and integrated incandescent illumination. A FastCam imi-tech (Korea) high speed digital camera with 640×480 pixel gray scale image sensor was mounted on the microscope, using ImCam software (IMI Technology, Co. Ltd) for high speed video recording. The larvae were anesthetized by placing them in filming/anesthetizing medium. Each larva in 0.5 ml filming/anesthetizing medium was transferred to a 96-well tissue culture plate at room temperature and sequential images of the heart were obtained, with the larvae positioned on their side, at 80 fps during 10 seconds with a shutter speed of 0.016 seconds.
# Physiological parameters of cardiovascular performance, as indicated hereinbelow, were evaluated in the zebrafish larvae. […] Sequential still frames were analyzed to capture ventricular end-systole and end-diastole images. […] The Ejection Fraction (EF) was determined by an independent estimate of ventricular volume. […] EF was then calculated according to the equation: EF=(EDV-ESV)/EDV*100. Heart rate (HR) was measured in beats per minute. Cardiac output (CO) was calculated according to the equation: CO=(EDV-ESV)*HR. A minimum of five sequential pairs of systolic and diastolic cycles were measured and analyzed in 9-12 larvae for each treatment.
compound,measurement,setting,value
"C[C@@H]1O[C@@H](O[C@H]2C[C@@H](O)[C@]3(CO)[C@H]4[C@H](O)C[C@]5(C)[C@@H](C6=CC(=O)OC6)CC[C@]5(O)[C@@H]4CC[C@]3(O)C2)[C@H](O)[C@H](O)[C@H]1O [ouabain, 3-(alpha-L-Rhamnopyranosyloxy)-1beta,5beta,11alpha,14,19-pentahydroxy-5beta-card-20(22)-enolide]",increase in Akt phosphorylation in the heart,[1],100±20.06%
same,increase in ERK phosphorylation in the heart,[2],130±17.95%
same,effect on heart contractility,[3],no effect on heart contractility
